In ChEMBL document CHEMBL2321754, “Novel small molecule protein arginine deiminase 4 (PAD4) inhibitors” (Bioorg Med Chem Lett, 2013):

Assays:
Carbonic anhydrase 9 = Carbonic anhydrase 9 (Homo sapiens, UniProt Q16790)
Description: Inhibition of human CA9 by stopped-flow assay

Carbonic anhydrase 12 = Carbonic anhydrase 12 (Homo sapiens, UniProt O43570); assay: Inhibition of human CA12 by stopped-flow assay
Carbonic anhydrase 2 = Carbonic anhydrase 2 (Homo sapiens, UniProt P00918); assay: Inhibition of human CA2 by stopped-flow assay
Carbonic anhydrase 1 = Carbonic anhydrase 1 (Homo sapiens, UniProt P00915); assay: Inhibition of human CA1 by stopped-flow assay
Carbonic anhydrase 1, sequence (P00915 whole entry): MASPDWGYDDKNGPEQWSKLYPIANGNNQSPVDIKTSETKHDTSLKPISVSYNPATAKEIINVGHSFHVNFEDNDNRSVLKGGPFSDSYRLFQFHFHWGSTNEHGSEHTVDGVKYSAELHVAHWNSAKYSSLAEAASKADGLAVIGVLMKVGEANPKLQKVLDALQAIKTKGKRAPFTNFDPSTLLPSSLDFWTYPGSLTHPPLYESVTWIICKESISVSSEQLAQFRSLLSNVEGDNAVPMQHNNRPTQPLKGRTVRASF

Carbonic anhydrase 12, sequence (O43570 whole entry): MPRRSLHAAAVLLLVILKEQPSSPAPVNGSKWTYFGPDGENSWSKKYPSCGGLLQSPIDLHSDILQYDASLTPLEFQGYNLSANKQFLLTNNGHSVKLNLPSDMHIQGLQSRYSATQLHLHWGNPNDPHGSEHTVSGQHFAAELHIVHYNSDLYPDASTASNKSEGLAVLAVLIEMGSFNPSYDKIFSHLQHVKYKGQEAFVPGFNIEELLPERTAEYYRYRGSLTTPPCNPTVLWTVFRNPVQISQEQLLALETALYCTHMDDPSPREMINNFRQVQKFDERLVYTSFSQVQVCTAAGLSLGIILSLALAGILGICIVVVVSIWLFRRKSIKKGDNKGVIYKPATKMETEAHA

Row | Structure (SMILES) | Ki (Carbonic anhydrase 9) [nM] | Ki (Carbonic anhydrase 12) [nM] | Ki (Carbonic anhydrase 2) [nM] | Ki (Carbonic anhydrase 1) [nM]
1 | N=C(N)Nc1ccc(C(=O)O)cc1 [4-GUANIDINO-BENZOIC ACID] | 2560 | 480 | 1150 | 630
2 | N=C(N)Nc1ccc(O)cc1 | 4130 | 14600 | 7510 | 8340
3 | N=C(N)NCCc1ccc(S(N)(=O)=O)cc1 | 34 | 14 | 89 | 240
